In PubChem BioAssay (NCI):
Values joined by “and” are separate entries in the source; they are usually repeats but may differ in a detail not shown here. Equal entries are not always repeated.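 Values below derive from 48-hour exposures of cells grown in 96-well plates, with endpoints linearly interpolated between the two concentrations bracketing the appropriate inhibition level. At the GI50, growth is halved. Definition used: TGI = concentration required for complete inhibition of growth.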

Key:
Test in all cases: NCI tumour cell line growth inhibition, 48 h
DMS 114 small cell lung = system: DMS 114 small cell lung
XF 498 CNS = system: XF 498 CNS
P388/ADR leukemia = system: P388/ADR leukemia
P388 leukemia = system: P388 leukemia
SN12K1 renal = system: SN12K1 renal
RXF-631 renal = system: RXF-631 renal

`CCOC(=O)C(C)(C)Oc1ccc2c(=O)cc(-c3ccccc3)oc2c1` gave a TGI (DMS 114 small cell lung) of 44 µM.
In the case of `CC1=CC(O)C(O)C2(C)C1CC1OC(=O)C(O)C3C(C)C(O)C4(O)OCC13C42` (centres undefined), the TGI (XF 498 CNS) is reported as 311 µM, the TGI (P388/ADR leukemia) is reported as > 625 µM and the TGI (P388 leukemia) is reported as > 625 µM. It also gave a TGI (DMS 114 small cell lung) of 157 µM and a TGI (SN12K1 renal) of 150 µM.
In the case of `COc1cccc(NC(=O)CSc2nnc(-c3ccc(N=Cc4ccc(Cl)cc4)cc3)o2)c1`, the TGI (XF 498 CNS) is reported as 37.7 µM and the TGI (DMS 114 small cell lung) is reported as 46.9 µM.
For `NC(Cc1cc(I)c(O)c(I)c1)C(=O)O` (centres undefined), the TGI (XF 498 CNS) was > 500 µM, the TGI (P388/ADR leukemia) was > 364 µM and the TGI (P388 leukemia) was 160 µM. For the same compound, the TGI (DMS 114 small cell lung) was > 293 µM and the TGI (SN12K1 renal) was 246 µM.
For `CCCCc1c2c(nc3c1CCc1cc4c(nc1-3)-c1nc3c(c(CCCC)c1CC4)CCC/C3=C\c1ccccc1)/C(=C/c1ccccc1)CCC2`, the TGI (XF 498 CNS) was 66.6 µM and the TGI (DMS 114 small cell lung) was > 100 µM.
For `COc1cc(C2C3=C(CCC3=O)Oc3cc4c(cc32)OCO4)cc(OC)c1OC` (centres undefined), the TGI (XF 498 CNS) was 0.736 µM, the TGI (DMS 114 small cell lung) was 0.725 µM and the TGI (RXF-631 renal) was 78.3 µM.
Work on `Cc1csc2c1C(=O)c1ccsc1C2=O` yielded a TGI (XF 498 CNS) of 5.06 µM and a TGI (DMS 114 small cell lung) of 3.1 µM.
In the case of `O=c1[nH]c(=O)n(C2OC(COP(=O)(O)OP(=O)(O)O)C(O)C2O)cc1F` (centres undefined), the TGI (XF 498 CNS) is reported as > 50 µM and the TGI (DMS 114 small cell lung) is reported as > 50 µM.
For `CN1CCn2c(Br)ccc2C1=O`, the TGI (XF 498 CNS) was > 100 µM.
`C/C(=N\NC(N)=O)C(CN1CCCCC1)C(c1ccccc1)c1c(O)c2ccccc2oc1=O` (centres undefined) was tested, and the TGI (DMS 114 small cell lung) was > 100 µM and the TGI (RXF-631 renal) was > 100 µM.
In the case of `CC1(O)C=CC2CCC1C2O` (centres undefined), the TGI (XF 498 CNS) is reported as > 100 µM and the TGI (DMS 114 small cell lung) is reported as 32.1 µM.
In the case of `CCOc1ccc2[nH]c3c(C)c4cc[n+](C)cc4c(C)c3c2c1`, the GI50 (DMS 114 small cell lung) is reported as 0.48 µM and 1.24 µM and the TGI (DMS 114 small cell lung) is reported as 2.74 µM and 4.7 µM.
